Source: patent publication US9840478B2 (MERCK SHARP & DOHME CORP., priority 2013, dated 2017)

System: HIV-1 (H9IIIB strain)
Assay: Cell-based HIV infection assay using a reporter (Cell-Based), MT4-GFP cells
Details: Human immunodeficiency virus 1, MT4-GFP cells infected with HIV-1 H9IIIB; 50% normal human serum; mean of at least two independent experiments; read-out: Cell-based IP
Outline: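 IC50 from 4-parameter dose-response of % viral growth inhibition, using the 48 h/24 h infected-cell ratio scaled between DMSO and a protease/integrase/NNRTI triple-drug control. Assay used MT4 cells with HIV-LTR-GFP reporter, pre-infected 24 h with HIV-1 H9IIIB, in 50% normal human serum.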

Structure (SMILES) | IC50
O=C(C[C@@H](c1ccc(F)cc1)c1cc(F)cc(F)c1)Nc1cncc(F)c1CC[C@H]1CNCCN1S(=O)(=O)N1CCC(F)(F)C1 [Example 329, (3S)-3-(3,5-difluorophenyl)-N-[4-(2-{(2)S-1-[(3,3-difluoropyrrolidin-1-yl)sulfonyl]piperazin-2-yl}ethyl)-5-fluoropyridin-3-yl]-3-(4-fluorophenyl)propanamide] | 47 nM
C[C@H]1CNC[C@H](CCc2c(F)cccc2NC(=O)[C@@H](N)[C@@H](Cc2ccc(F)cc2)c2ccc(Cl)cc2)N1S(C)(=O)=O [Example 202, (βS)-4-chloro-β-(4-fluorobenzyl)-N-(3-fluoro-2-{2-[(2S,6S)-6-methyl-1-(methylsulfonyl)piperazin-2-yl]ethyl}phenyl)-L-phenylalaninamide] | 620 nM
O=C(C[C@@H](c1ccc(F)cc1)c1cc(F)cc(F)c1)Nc1cncc(F)c1CC[C@H]1CNCCN1C(=O)c1cccc(OC(F)(F)F)c1 [Example 346, (3S)-3-(3,5-difluorophenyl)-3-(4-fluorophenyl)-N-(5-fluoro-4-{2-[(2S)-1-{[3-(trifluoromethoxy)phenyl]carbonyl}piperazin-2-yl]ethyl}pyridin-3-yl)propanamide] | 860 nM
C[C@H]1CNC[C@H](CCc2c(F)cccc2NC(=O)[C@@H](N)C(c2cccc(F)c2)c2cccc(F)c2)N1S(C)(=O)=O [Example 170, 3-fluoro-N-(3-fluoro-2-{2-[(2S,6S)-6-methyl-1-(methylsulfonyl)piperazin-2-yl]ethyl}phenyl)-β-(3-fluorophenyl)-L-phenylalaninamide] | 60 nM
C[C@@H]1CNC[C@H](CCc2c(F)cccc2NC(=O)[C@@H](N)C2(c3cc(F)cc(F)c3)CCOCC2)N1S(=O)(=O)c1ccccc1 [Example 287, (2S)-2-amino-2-[4-(3,5-difluorophenyl)tetrahydro-2H-pyran-4-yl]-N-(3-fluoro-2-{2-[(2S,6R)-6-methyl-1-(phenylsulfonyl)piperazin-2-yl]ethyl}phenyl)ethanamide] | 91 nM
COC(=O)N[C@H](C(=O)Nc1cccc(F)c1CC[C@H]1CNC[C@@H](C)N1S(=O)(=O)c1ccccc1)[C@@H](c1ccc(Cl)cc1)c1ccc(OC)nc1 [Example 120, (βS)-4-chloro-N-(3-fluoro-2-{2-[(2S,6R)-6-methyl-1-(phenylsulfonyl)piperazin-2-yl]ethyl}phenyl)-Nα-(methoxycarbonyl)-β-(6-methoxypyridin-3-yl)-L-phenylalaninamide] | 19 nM
CC(C)[C@H](c1cccc(Cl)c1)[C@H](N)C(=O)Nc1cccc(F)c1CC[C@H]1CNC[C@H](C)N1S(=O)(=O)C1CC1 [Example 215, (βR)-3-chloro-N-(2-{2-[(2S,6S)-1-(cyclopropylsulfonyl)-6-methylpiperazin-2-yl]ethyl}-3-fluorophenyl)-β-(1-methylethyl)-L-phenylalaninamide] | 2500 nM
COC(=O)N[C@H](C(=O)Nc1cncc(F)c1CC[C@H]1CNC[C@@H](C)N1S(=O)(=O)C1CC1)[C@@H](c1ccc(F)cc1)c1cc(F)cc(F)c1 [Example 211, (βS)-N-(4-{2-[(2S,6R)-1-(cyclopropylsulfonyl)-6-methylpiperazin-2-yl]ethyl}-5-fluoropyridin-3-yl)-β-(3,5-difluorophenyl)-4-fluoro-Nα-(methoxycarbonyl)-L-phenylalaninamide] | 16 nM
C[C@H]1CNC[C@H](CCc2c(F)cccc2NC(=O)[C@@H](N)[C@@H](c2ccc(Cl)cc2)c2cccc(F)c2)N1S(=O)(=O)C1CC1 [Example 167, (βS)-4-chloro-N-(2-{2-[(2S,6S)-1-(cyclopropylsulfonyl)-6-methylpiperazin-2-yl]ethyl}-3-fluorophenyl)-β-(3-fluorophenyl)-L-phenylalaninamide] | 31 nM
COC(=O)N[C@H](C(=O)Nc1cncc(F)c1CC[C@H]1CNC[C@@H](C)N1S(=O)(=O)C1CC1)[C@@H](c1ccc(Cl)cc1)C(C)C [Example 180, (βR)-4-chloro-N-(4-{2-[(2S,6R)-1-(cyclopropylsulfonyl)-6-methylpiperazin-2-yl]ethyl}-5-fluoropyridin-3-yl)-Nα-(methoxycarbonyl)-β-(1-methylethyl)-L-phenylalaninamide] | 69 nM
COC(=O)N[C@H](C(=O)Nc1cccc(F)c1CC[C@H]1CNC[C@H](C)N1S(C)(=O)=O)[C@@H](c1ccc(F)cc1)C1CCOCC1 [Example 130, (βR)-4-fluoro-N-(3-fluoro-2-{2-[(2S,6S)-6-methyl-1-(methylsulfonyl)piperazin-2-yl]ethyl}phenyl)-Nα-(methoxycarbonyl)-β-(tetrahydro-2H-pyran-4-yl)-L-phenylalaninamide] | 55 nM
COC(=O)N[C@H](C(=O)Nc1cccc(F)c1CC[C@H]1CNC[C@@H](C)N1S(=O)(=O)c1ccccc1)[C@@H](c1ccc(Cl)cc1)C(C)C [Example 112, (βR)-4-chloro-N-(3-fluoro-2-{2-[(2S,6R)-6-methyl-1-(phenylsulfonyl)piperazin-2-yl]ethyl}phenyl)-Nα-(methoxycarbonyl)-β-(1-methylethyl)-L-phenylalaninamide] | 19 nM
COC(=O)N[C@H](C(=O)Nc1cccc(F)c1CC[C@H]1CNC[C@H](C)N1S(=O)(=O)C1CC1)[C@@H](c1ccc(Cl)cc1)C1CCOCC1 [Example 12, Methyl (1R,2S)-1-(4-chlorophenyl)-3-(2-(2-((2S,6S)-1-(cyclopropylsulfonyl)-6-methylpiperazin-2-yl)ethyl)-3-fluorophenylamino)-3-oxo-1-(tetrahydro-2H-pyran-4-yl)propan-2-ylcarbamate] | 18 nM
C[C@@H]1C[C@H]([C@H](c2ccc(F)cc2)[C@H](N)C(=O)Nc2cccc(F)c2CC[C@H]2CNC[C@@H](C)N2S(=O)(=O)c2ccc(F)cc2)C[C@H](C)O1 [Example 371, (2S,3R)-2-amino-3-((2R,4r,6S)-2,6-dimethyltetrahydro-2H-pyran-4-yl)-N-(3-fluoro-2-(2-((2S,6S)-1-((4-fluorophenyl)sulfonyl)-6-methylpiperazin-2-yl)ethyl)phenyl)-3-(4-fluorophenyl)propanamide] | 9.6 nM
C[C@@H]1CNC[C@H](CCc2c(F)cccc2NC(=O)CC(c2ccc(F)cc2)c2ccc(F)cc2)N1S(=O)(=O)c1ccccc1 [Example 90, N-(3-fluoro-2-{2-[(2S,6R)-6-methyl-1-(phenylsulfonyl)piperazin-2-yl]ethyl}phenyl)-3,3-bis(4-fluorophenyl) propanamide] | 66 nM
COC(=O)N[C@H](C(=O)Nc1cncc(F)c1CC[C@H]1CNC[C@H](C)N1S(=O)(=O)c1ccccc1)[C@@H](c1ccc(Cl)cc1)C(C)C [Example 8, Methyl ((2S,3R)-3-(4-chlorophenyl)-1-((5-fluoro-4-(2-((2S,6S)-6-methyl-1-(phenylsulfonyl)piperzin-2-yl)ethyl)pyridin-3-yl)amino)-4-methyl-1-oxopentan-2-yl)carbamate] | 9.8 nM
C[C@@H]1CN(S(=O)(=O)c2ccccc2)[C@@H](CCc2c(F)cccc2NC(=O)[C@@H](N)[C@@H](c2ccc(Cl)cc2)c2cccc(OC(F)(F)F)c2)CN1 [Example 98, (βS)-4-chloro-N-(3-fluoro-2-{2-[(2S,5R)-5-methyl-1-(phenylsulfonyl)piperazin-2-yl]ethyl}phenyl)-β-[3-(trifluoromethoxy)phenyl]-L-phenylalaninamide] | 350 nM
CC(C)[C@H](c1ccc(Cl)cc1)[C@H](N)C(=O)Nc1cccc(F)c1CC[C@H]1CNC[C@H](C)N1S(=O)(=O)C1CC1 [Example 127, (βR)-4-chloro-N-(2-{2-[(2S,6S)-1-(cyclopropylsulfonyl)-6-methylpiperazin-2-yl]ethyl}-3-fluorophenyl)-β-(1-methylethyl)-L-phenylalaninamide] | 300 nM
O=C(C[C@@H](c1ccc(F)cc1)c1cc(F)cc(F)c1)Nc1cncc(F)c1CC[C@H]1CNCCN1S(=O)(=O)N1CC[C@@H](F)C1 [Example 327, (3S)-3-(3,5-difluorophenyl)-N-(5-fluoro-4-{2-[(2)S-1-{[(3R)-3-fluoropyrrolidin-1-yl]sulfonyl}piperazin-2-yl]ethyl}pyridin-3-yl)-3-(4-fluorophenyl)propanamide] | 9.4 nM
CS(=O)(=O)c1ccc(S(=O)(=O)N2CCNC[C@@H]2CCc2c(F)cncc2NC(=O)C[C@@H](c2ccc(F)cc2)c2cc(F)cc(F)c2)cc1 [Example 313, (3S)-3-(3,5-difluorophenyl)-N-(5-fluoro-4-{2-[(2S)-1-{[4-(methylsulfonyl)phenyl]sulfonyl}piperazin-2-yl]ethyl}pyridin-3-yl)-3-(4-fluorophenyl)propanamide] | 48 nM
COC(=O)N[C@H](C(=O)Nc1cncc(F)c1CC[C@H]1CNC[C@H](C)N1S(=O)(=O)c1ccc(Cl)cc1)[C@@H](c1ccc(Cl)cc1)C1CCOCC1 [Example 282, (βR)-4-chloro-N-[4-(2-{(2S,6S)-1-[(4-chlorophenyl)sulfonyl]-6-methylpiperazin-2-yl}ethyl)-5-fluoropyridin-3-yl]-Nα-(methoxycarbonyl)-β-(tetrahydro-2H-pyran-4-yl)-L-phenylalaninamide] | 11 nM
O=C(N[C@H](C(=O)Nc1cncc(F)c1CC[C@H]1CNCCN1S(=O)(=O)N1CCCC1)[C@@H](c1ccc(F)cc1)c1cc(F)cc(F)c1)C1CC1 [Example 86] | 13 nM

Same assay, conditions: MT4-GFP cells infected with HIV-1 H9IIIB; 50% normal human serum; mean of at least two independent experiments; read-out: Cell-based IP

Structure (SMILES) | IC50
COCC1CNC[C@H](CCc2c(F)cccc2NC(=O)[C@@H](N)[C@@H](c2ccc(Cl)cc2)C2CCOCC2)N1S(C)(=O)=O (stereo partly drawn) [Example 218, (βR)-4-chloro-N-(3-fluoro-2-{2-[(2S)-6-(methoxymethyl)-1-(methylsulfonyl)piperazin-2-yl]ethyl}phenyl)-β-(tetrahydro-2H-pyran-4-yl)-L-phenylalaninamide] | 310 nM
COC(=O)N[C@H](C(=O)Nc1cccc(F)c1CC[C@H]1CNC[C@H](C)N1S(C)(=O)=O)[C@@H](c1ccc(F)cc1)c1cc(F)cc(F)c1 [Example 259, (βS)-β-(3,5-difluorophenyl)-4-fluoro-N-(3-fluoro-2-{2-[(2S,6S)-6-methyl-1-(methylsulfonyl)piperazin-2-yl]ethyl}phenyl)-Nα-(methoxycarbonyl)-L-phenylalaninamide] | 18 nM
